The source of these data is patent publication US20050059669A1, “M-substituted benzoic acid derivatives having integrin alpha v beta 3 antagonistic activity” (priority 1999, published 2005).

Test [1] deals with GP IIb/IIIa (Homo sapiens, UniProt P05106+P08514). The experiment in a line: GP IIb/IIIa antagonistic activity (method of Pharmacological Test 2 in WO 94/21599). Format: binding. As for the experimental part: GP IIb/IIIa antagonistic activity was measured for the compounds according to the present invention. The measurement of the GP IIb/IIIa antagonistic activity was carried out according to the method described in Pharmacological Test 2 in WO 94/21599. As a result, both the compounds prepared in Examples 3 and 6 had significant GP IIb/IIIa antagonistic activity. In particular, the IC50 value of the compound prepared in Example 3 was 2.0 nM.

Test [2] addresses T1, integrin αvβ3 (vitronectin receptor purified from the human placenta) (Homo sapiens, UniProt P05106+P06756).
T1 construct: a vitronectin receptor (protein content: 118 mg/ml) purified from the human placenta; from tissue; host or cells: human placenta
Description: αvβ3 binding assay (vitronectin-vitronectin receptor binding assay). The conditions noted are these: vitronectin binding to coated human placenta vitronectin receptor; read-out: integrin αvβ3 antagonistic activity (IC50). As to the method: Integrin αvβ3 antagonistic activity was first measured in a vitronectin-vitronectin receptor binding assay system in accordance with the method of Kouns et al. (W. C. Kouns, D. Kirchhofer, P. Hadvary, A. Edenhofer, T. Weller, G. Pfenninger, H. R. Baumgartner, L. K. Jennings and B. Steiner, Blood, 80, 2539-2547 (1992)). […] A 0.1 M citric acid buffer (pH 4.3) containing 0.05% NaN3 was added in an amount of 50 μl/well to stop the reaction, followed by the measurement of the absorbance at 415 nm with a microplate reader (MTP 32, Corona Electric) (reference: 675 nm). The total binding was defined as the absorbance after a reaction using 50 μl of TBS-Tween instead of the test compound, and the non-specific binding (100% inhibition) was defined as the absorbance after a reaction using 50 μl of TBS-Tween containing 2×10^−3 M RGDS. The inhibition was calculated by the following equation: [formula]
IC50 was determined from a primary regression line of the logarithm of each concentration of the test compound and the logarithm of (100−inhibition)/inhibition.

For test [3], the system named is human vascular smooth muscle cells. Description: Inhibitory activity against adhesion of human vascular smooth muscle cells to vitronectin. Format: cell-based. As to the method: The adhesion of human vascular smooth muscle cells to immobilized human vitronectin was measured in accordance with the method of Liaw et al. (Liaw L, Almeida M, Hart C E, Schwartz S M, and Giachelli C M, Circulation Research, 74 (2), 214-224 (1994)).
A Dulbecco's phosphate buffer (Dulbecco's PBS(−), Nissui Pharmaceutical Co., Ltd.) solution of human plasma-derived vitronectin (CALBIOCHEM) adjusted to a concentration of 4 μg/ml was first added to wells (50 μl/well) of a microplate (Maxisorp, Nunc), and a reaction for immobilization was allowed to proceed at 4° C. overnight. After washing twice with 150 μl of Dulbecco's phosphate buffer, a Dulbecco's phosphate buffer containing 10 mg/ml of bovine serum albumin (SIGMA) was added, followed by blocking at 37° C. for one hr. […]
Next, 50 μl of a Dulbecco's modified Eagle's basal medium containing 0.1% of bovine serum albumin with a medicament added thereto was added to the wells of the human vitronectin-coated assay microplate, followed by pre-cultivation under 5% carbon dioxide at 37° C. for 10 min. […] The absorbance of the microplate thus obtained was measured at 595 nm. […] The inhibition was calculated by the following equation. IC50 was determined from a primary regression line of the logarithm of each concentration of the test compound and the logarithm of (100−inhibition)/inhibition. […]

Chain of GP IIb/IIIa (P08514 32-887 limits assumed): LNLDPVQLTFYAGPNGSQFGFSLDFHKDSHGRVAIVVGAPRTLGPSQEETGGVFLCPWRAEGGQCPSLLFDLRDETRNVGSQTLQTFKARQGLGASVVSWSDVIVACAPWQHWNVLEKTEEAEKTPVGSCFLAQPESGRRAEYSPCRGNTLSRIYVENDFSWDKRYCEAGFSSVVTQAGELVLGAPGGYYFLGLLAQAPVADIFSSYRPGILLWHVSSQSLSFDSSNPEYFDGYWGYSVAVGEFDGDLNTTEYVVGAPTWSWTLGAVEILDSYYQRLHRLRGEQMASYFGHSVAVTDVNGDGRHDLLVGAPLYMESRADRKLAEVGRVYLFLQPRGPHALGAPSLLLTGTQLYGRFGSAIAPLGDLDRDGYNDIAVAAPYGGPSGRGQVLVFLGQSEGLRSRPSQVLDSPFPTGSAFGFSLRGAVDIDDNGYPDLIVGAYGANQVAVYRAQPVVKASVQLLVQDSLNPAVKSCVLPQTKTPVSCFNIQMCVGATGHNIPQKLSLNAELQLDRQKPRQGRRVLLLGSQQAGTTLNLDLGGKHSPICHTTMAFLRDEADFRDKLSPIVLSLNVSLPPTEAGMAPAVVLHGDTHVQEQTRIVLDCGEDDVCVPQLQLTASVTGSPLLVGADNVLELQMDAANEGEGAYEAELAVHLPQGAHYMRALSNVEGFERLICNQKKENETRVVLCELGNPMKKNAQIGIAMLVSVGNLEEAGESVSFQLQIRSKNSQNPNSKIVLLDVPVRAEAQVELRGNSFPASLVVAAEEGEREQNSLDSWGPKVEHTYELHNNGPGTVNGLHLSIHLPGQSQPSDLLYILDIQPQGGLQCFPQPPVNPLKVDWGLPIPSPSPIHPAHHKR
Chain of GP IIb/IIIa (P08514 891-1039 partner limits assumed): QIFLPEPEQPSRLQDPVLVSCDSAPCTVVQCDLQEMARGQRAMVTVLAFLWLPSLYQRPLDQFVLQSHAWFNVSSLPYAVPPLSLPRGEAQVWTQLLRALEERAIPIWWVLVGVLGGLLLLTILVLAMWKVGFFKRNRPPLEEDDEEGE
Chain of GP IIb/IIIa (P05106 27-788): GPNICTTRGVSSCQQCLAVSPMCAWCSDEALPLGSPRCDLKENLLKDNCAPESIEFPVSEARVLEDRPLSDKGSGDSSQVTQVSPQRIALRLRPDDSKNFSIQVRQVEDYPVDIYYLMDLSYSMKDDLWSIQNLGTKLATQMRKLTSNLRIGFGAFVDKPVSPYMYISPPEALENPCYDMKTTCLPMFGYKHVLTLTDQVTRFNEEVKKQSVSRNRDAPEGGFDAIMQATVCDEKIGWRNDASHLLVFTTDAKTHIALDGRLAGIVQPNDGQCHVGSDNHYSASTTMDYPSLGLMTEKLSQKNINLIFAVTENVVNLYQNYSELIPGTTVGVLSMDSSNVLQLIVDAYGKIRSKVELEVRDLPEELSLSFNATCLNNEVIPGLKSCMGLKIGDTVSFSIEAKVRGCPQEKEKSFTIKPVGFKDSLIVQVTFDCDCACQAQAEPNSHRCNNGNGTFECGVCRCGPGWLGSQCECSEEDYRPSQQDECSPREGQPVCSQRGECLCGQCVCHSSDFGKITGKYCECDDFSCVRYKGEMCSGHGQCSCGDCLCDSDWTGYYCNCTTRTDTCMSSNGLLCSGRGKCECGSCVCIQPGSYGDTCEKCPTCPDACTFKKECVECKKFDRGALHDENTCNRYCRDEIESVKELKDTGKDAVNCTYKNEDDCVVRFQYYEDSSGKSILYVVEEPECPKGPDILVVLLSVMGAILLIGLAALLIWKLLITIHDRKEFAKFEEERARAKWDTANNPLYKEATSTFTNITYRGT
T1 sequence (P06756 31-889 limits assumed): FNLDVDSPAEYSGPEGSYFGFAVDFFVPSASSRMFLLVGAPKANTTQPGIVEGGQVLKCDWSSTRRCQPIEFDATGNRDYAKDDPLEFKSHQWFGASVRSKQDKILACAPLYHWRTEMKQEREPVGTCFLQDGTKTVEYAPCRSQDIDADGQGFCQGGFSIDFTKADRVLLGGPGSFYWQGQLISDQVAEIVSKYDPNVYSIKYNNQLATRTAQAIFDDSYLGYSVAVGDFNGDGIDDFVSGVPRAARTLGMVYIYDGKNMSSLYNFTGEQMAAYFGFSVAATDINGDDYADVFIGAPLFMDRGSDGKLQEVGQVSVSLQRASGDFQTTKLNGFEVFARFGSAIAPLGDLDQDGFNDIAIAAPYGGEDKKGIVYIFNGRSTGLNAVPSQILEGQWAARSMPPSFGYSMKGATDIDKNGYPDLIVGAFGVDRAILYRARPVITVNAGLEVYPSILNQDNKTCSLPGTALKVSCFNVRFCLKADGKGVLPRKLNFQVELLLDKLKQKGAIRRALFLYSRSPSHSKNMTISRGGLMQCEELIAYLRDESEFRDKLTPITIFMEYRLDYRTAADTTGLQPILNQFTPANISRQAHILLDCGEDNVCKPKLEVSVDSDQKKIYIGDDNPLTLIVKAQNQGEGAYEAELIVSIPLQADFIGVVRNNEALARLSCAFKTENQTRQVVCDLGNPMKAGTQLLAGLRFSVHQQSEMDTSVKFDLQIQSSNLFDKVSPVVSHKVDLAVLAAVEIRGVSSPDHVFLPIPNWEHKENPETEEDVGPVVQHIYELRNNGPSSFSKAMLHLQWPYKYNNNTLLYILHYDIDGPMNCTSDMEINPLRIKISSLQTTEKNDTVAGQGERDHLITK
T1 sequence (P06756 891-1048 partner limits assumed): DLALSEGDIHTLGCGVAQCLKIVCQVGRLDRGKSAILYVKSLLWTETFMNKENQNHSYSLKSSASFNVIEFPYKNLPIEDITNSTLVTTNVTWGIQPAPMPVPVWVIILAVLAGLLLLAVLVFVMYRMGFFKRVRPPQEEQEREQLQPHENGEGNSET
T1 sequence (P05106 27-788): as the sequence (P05106 27-788) above

Take `O=C(NC[C@H](NS(=O)(=O)c1ccccc1)C(=O)O)c1cccc(N2CCN(C3=NCCCN3)CC2)c1` [Example 3, (2S)-Benzenesulfonylamino-3-[3-{4-(1,4,5,6-tetrahydropyrimidin-2-yl)piperazin-1-yl}benzoylamino]-propionic acid]: the IC50 in test [1] turned out to be 2 nM; in test [2], 1.3 nM. On to `O=C(NC[C@H](NS(=O)(=O)c1ccccc1)C(=O)O)c1cccc(N2CCC(NC3=NCCCN3)CC2)c1` [Example 6, (2S)-Benzenesulfonylamino-3-[3-{4-(1,4,5,6-tetrahydropyrimidin-2-ylamino)piperidin-1-yl}benzoylamino]propionic acid], for which the “GP IIb/IIIa antagonistic activity” value in test [1] (result in words) is on record as “significant”. Regarding `O=C(NC[C@H](NS(=O)(=O)c1ccccc1)C(=O)O)c1ccc(F)c(N2CCC(NC3=NCCCN3)CC2)c1` [Example 9, (2S)-Benzenesulfonylamino-3-[4-fluoro-3-{4-(1,4,5,6-tetrahydropyrimidin-2-ylamino)piperidin-1-yl}-benzoylamino]propionic acid], the IC50 in test [2] is 2 nM. The molecule `O=C(NC[C@H](NS(=O)(=O)c1ccccc1)C(=O)O)c1cc(N2CCC(NC3=NCCCN3)CC2)cc(C(F)(F)F)c1` [Example 27, (2S)-Benzenesulfonylamino-3-[3-{4-(1,4,5,6-tetrahydropyrimidin-2-ylamino)piperidin-1-yl}-5-(trifluoromethyl)benzoylamino]propionic acid] returned a half-inhibitory concentration (IC50) in test [3] (immobilized human vitronectin) of 96 nM. Moreover, the “cell adhesion inhibitory activity” value in test [3] (result in words) is recorded as “potent”.

A word on the IC50: it is the concentration that gives 50% inhibition.
